The structures appear in SMILES notation.

Common to all, as to assay: CCK8 cell viability assay
Format in all cases: cell-based, human

For assay [1], the system named is HL-7702 normal liver cells. The conditions noted are these: Homo sapiens, L02; HL-7702, 48 h, individual treatment; read-out: IC50 (half maximal inhibitory concentration). As for the experimental part: (§1) Cell viability assay using the CCK8 reagent (Bimake, Shanghai, China) was conducted according to the manufacturer’s instructions. The cell proliferation data were used to calculate the cell viability. Briefly, HepG2, SMMC-7721, and HL-7702 cells with a density of 5 × 10^3 cells/well were seeded into each well of 96-well plates and incubated overnight. […] After 48 h, 10 µL of CCK8 reagent was added to each well, followed by 2 h incubation at 37°C and measurement of absorbance at 450 nm using a microplate reader (Molecular Devices, LLC.). […] The effects of the combinatorial inhibition were visualized by isobologram analyses ([Tallarida, 2001]). […] A line was drawn to link the two IC50 points. […] The dots above, on, or below the line indicate the “antagonistic,” “additive” and “synergistic” effects, respectively. The same method was used to obtain the CI value for the cotreatment of BCP and DDP.

In a further assay the test system is HepG2 cells. The following applies: Homo sapiens; HepG2, 48 h, individual treatment; read-out: IC50 (half maximal inhibitory concentration). As for the experimental part: as §1
Another assay deals with SMMC-7721 cells. The following applies: Homo sapiens; SMMC-7721, 48 h, individual treatment; read-out: IC50 (half maximal inhibitory concentration). As for the experimental part: as §1

Turning to `C=C1CC/C=C(\C)CC[C@@H]2[C@@H]1CC2(C)C` [BCP, β-caryophyllene], the IC50 came out at 610.9 ± 2.72 µM in assay [1], 194 ± 3.2 µM in the assay with HepG2 cells and 334.5 ± 2.96 µM with SMMC-7721 cells.

(Values after publication PMC11671526, “β-caryophyllene sensitizes hepatocellular carcinoma cells to chemotherapeutics and inhibits cell malignancy through targeting MAPK signaling pathway” (Frontiers in Pharmacology, 2024).)
